Assay results as given in patent US20250243407A1, “LIQUID CRYSTAL COMPOSITION, OPTICALLY ANISOTROPIC FILM, OPTICAL FILM, POLARIZING PLATE, IMAGE DISPLAY APPARATUS, AND POLYMERIZABLE COMPOUND” (FUJIFILM Corporation, priority 2022, published 2025).

Key:
[1] = Liquid crystallinity: phase transition temperature measured using a polarization microscope; type: physicochemical
Description: A phase transition temperature of the prepared liquid crystal composition was measured using a polarization microscope.

[2] = Solubility: presence or absence of precipitation over time in cyclopentanone/methyl ethyl ketone; type: physicochemical; details: 50 mg, cyclopentanone/methyl ethyl ketone 3/1 by weight, solid content 30 wt %, dissolved at 60° C., cooled to room temperature (25° C.), visual precipitation over time
Description: 50 mg of each of the liquid crystal compositions prepared in a 1.5 mL sample bottle was weighed, and a solvent (mixture of cyclopentanone/methyl ethyl ketone at a weight ratio of 3/1) was added thereto until the solid content was 30 wt % ([…]).
Next, the mixture was heated to 60° C. and stirred to be dissolved, cooled to room temperature (25° C.), and the presence or absence of precipitation was visually confirmed over time after cooling and evaluated according to the following standard.
C: precipitation occurred within 24 hours at room temperature.

- Liquid crystallinity: phase transition temperature between isotropic liquid (Iso) and crystal (Cr) [1]: Iso 178 Cr ° C.
SMILES: C=CC(=O)OCC(C)(C)COC(=O)CCC(=O)OCCc1ccc(OC(=O)C2CCC(C(=O)Oc3c(C(C)(C)C)cc(OC(=O)C4CCC(C(=O)Oc5cc(C(C)(C)C)c(OC(=O)C6CCC(C(=O)Oc7ccc(CCOC(=O)CCC(=O)OCC(C)(C)COC(=O)C=C)cc7)CC6)c6c5SC(=C(C#N)C#N)S6)CC4)c4c3SC(=C(C#N)C#N)S4)CC2)cc1 (centres unmarked) [Comparative Example 1]
- Solubility [2]: C (precipitation occurred within 24 hours at room temperature)
